Laboratory results published in patent publication US7998987B2, “Inhibitors of c-Met and uses thereof” (Vertex Pharmaceuticals Incorporated, priority 2005, dated 2011).
Read-outs that look alike come from different tables or passages of the source.

Target: c-Met (Homo sapiens, UniProt P08581)
Test: Ki determination for the inhibition of c-Met kinase activity (standard coupled enzyme system)
Format: biochemical
Settings: coupled enzyme system, 200 μM ATP, 80 nM c-Met, 30° C., read-out: c-Met Ki
Method in brief: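 The kinase (80 nM) turned over polyGluTyr (10 μM) with ATP (200 μM, added to start), coupled to NADH oxidation via pyruvate kinase/lactate dehydrogenase at pH 7.5 HEPES, 1.5% DMSO.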

Chain of c-Met (P08581 25-1390): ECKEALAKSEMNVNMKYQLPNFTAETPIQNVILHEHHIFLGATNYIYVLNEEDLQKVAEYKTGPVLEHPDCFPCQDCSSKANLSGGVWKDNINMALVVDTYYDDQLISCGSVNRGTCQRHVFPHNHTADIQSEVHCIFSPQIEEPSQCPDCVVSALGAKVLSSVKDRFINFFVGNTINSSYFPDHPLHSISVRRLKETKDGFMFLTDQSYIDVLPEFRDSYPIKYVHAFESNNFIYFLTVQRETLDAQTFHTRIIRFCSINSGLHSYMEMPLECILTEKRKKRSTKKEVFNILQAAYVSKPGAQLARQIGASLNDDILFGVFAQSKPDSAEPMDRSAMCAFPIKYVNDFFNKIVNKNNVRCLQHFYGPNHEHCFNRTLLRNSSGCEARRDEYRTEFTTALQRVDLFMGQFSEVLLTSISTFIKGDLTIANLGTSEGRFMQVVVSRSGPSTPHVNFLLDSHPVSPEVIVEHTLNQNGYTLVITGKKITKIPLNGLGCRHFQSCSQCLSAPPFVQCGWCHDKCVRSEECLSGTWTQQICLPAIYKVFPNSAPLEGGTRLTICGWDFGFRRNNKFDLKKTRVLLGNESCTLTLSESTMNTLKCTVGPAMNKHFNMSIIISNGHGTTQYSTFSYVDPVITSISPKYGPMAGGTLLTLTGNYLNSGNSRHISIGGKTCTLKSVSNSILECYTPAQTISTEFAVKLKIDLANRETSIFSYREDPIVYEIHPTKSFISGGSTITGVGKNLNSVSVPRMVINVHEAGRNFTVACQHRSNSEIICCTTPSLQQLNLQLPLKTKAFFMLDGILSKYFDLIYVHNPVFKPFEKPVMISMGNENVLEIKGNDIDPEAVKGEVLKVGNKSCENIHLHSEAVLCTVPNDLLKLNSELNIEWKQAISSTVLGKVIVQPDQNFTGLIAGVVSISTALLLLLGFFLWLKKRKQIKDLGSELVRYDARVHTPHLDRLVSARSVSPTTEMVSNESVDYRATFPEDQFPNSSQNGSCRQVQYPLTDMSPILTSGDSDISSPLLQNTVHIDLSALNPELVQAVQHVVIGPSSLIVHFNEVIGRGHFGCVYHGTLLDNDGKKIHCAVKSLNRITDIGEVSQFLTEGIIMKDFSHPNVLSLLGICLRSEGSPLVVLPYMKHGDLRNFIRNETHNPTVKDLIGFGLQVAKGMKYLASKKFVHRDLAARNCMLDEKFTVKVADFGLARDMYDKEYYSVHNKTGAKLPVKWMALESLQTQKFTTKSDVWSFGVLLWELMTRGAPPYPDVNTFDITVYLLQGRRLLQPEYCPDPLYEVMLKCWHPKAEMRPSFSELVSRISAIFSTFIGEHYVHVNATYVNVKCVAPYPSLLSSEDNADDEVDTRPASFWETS

SMILES	Ki [nM]	Ki (number printed instead of class symbol) [nM]
CCc1cccc(Nc2ccc3nnc(Cc4ccc(OC)cc4)n3n2)c1 [Compound 291]	100 to 2000	
Oc1ccc(Cc2nnc3ccc(Nc4cccc(C(F)(F)F)c4)nn23)cc1F [Compound 292]	< 100	
COc1cccc(Nc2ccc3nnc(Cc4ccc(O)c(F)c4)n3n2)c1 [Compound 293]	100 to 2000	
Oc1ccc(Cc2nnc3ccc(Nc4cc(Cl)cc(Cl)c4)nn23)cc1 [Compound 294]	< 100	
Cc1cc(C)cc(Nc2ccc3nnc(Cc4ccc(O)cc4)n3n2)c1 [Compound 295]	< 100	
Cc1cc(C)cc(Nc2ccc3nnc(Cc4ccc(O)c(Cl)c4)n3n2)c1 [Compound 296]	< 100	
COc1ccc(Cc2nnc3ccc(Nc4cc(C)cc(C)c4)nn23)cc1 [Compound 297]	100 to 2000	
Oc1ccc(Cc2nnc3ccc(Nc4cc(F)cc(F)c4)nn23)cc1F [Compound 298]	< 100	
CC(O)c1cccc(Nc2ccc3nnc(Cc4ccc(O)c(Cl)c4)n3n2)c1 (centres unmarked) [Compound 299]	100 to 2000	
OCCc1cccc(Nc2ccc3nnc(Cc4ccc(O)c(Cl)c4)n3n2)c1 [Compound 300]	100 to 2000	
OCCc1cccc(Nc2ccc3nnc(Cc4ccc5c(c4)OCO5)n3n2)c1 [Compound 301]	100 to 2000	
CC1(C)CC(Nc2ccc3nnc(Cc4ccc(O)cc4)n3n2)CCO1 (centres unmarked) [Compound 302]	100 to 2000	
C[C@H](CO)Nc1ccc2nnc(Cc3ccc(O)cc3)n2n1 [Compound 303]	100 to 2000	
COC[C@@H](C)Nc1ccc2nnc(Cc3ccc(O)cc3)n2n1 [Compound 304]	100 to 2000	
Oc1ccc(Cc2nnc3ccc(Sc4cccc(Cl)c4)nn23)cc1 [Compound 305]	< 100	
CCOC(=O)N1CCC(Nc2ccc3nnc(Cc4ccc(O)cc4)n3n2)CC1 [Compound 306]	100 to 2000	
O=C1NCCCCC1Nc1ccc2nnc(Cc3ccc(O)cc3)n2n1 (centres unmarked) [Compound 307]	> 2000	
CC[C@@H](CO)Nc1ccc2nnc(Cc3ccc(O)cc3)n2n1 [Compound 308]	100 to 2000	
C[C@@H](Nc1ccc2nnc(Cc3ccc(O)cc3)n2n1)C(C)(C)C [Compound 309]	100 to 2000	
C[C@H](Nc1ccc2nnc(Cc3ccc(O)cc3)n2n1)c1ccccc1 [Compound 310]	100 to 2000	
CCN(CC)CC(C)Nc1ccc2nnc(Cc3ccc(O)cc3)n2n1 (centres unmarked) [Compound 311]	> 2000	
CC[C@H](CO)Nc1ccc2nnc(Cc3ccc(O)cc3)n2n1 [Compound 312]	100 to 2000	
C[C@@H](Nc1ccc2nnc(Cc3ccc(O)cc3)n2n1)c1ccccc1 [Compound 313]	100 to 2000	

SMILES	Ki [nM]	Ki (number printed instead of class symbol) [nM]
Fc1ccc(Cc2nnc3ccc(Nc4cccc(Cl)c4)nn23)c(Cl)c1 [Compound 314]	100 to 2000	
Clc1cccc(Nc2ccc3nnc(Cc4ccccc4)n3n2)c1 [Compound 315]	> 2000	
O=C(Cc1nnc2ccc(Nc3cccc(Cl)c3)nn12)c1cccnc1 [Compound 316]	> 2000	
Nc1cccc(Cc2nnc3ccc(Nc4cccc(Cl)c4)nn23)c1 [Compound 317]	> 2000	
Oc1ccc(Cc2nnc3ccc(NC4CCOCC4)nn23)cc1 [Compound 318]	100 to 2000	
C[C@H](c1ccc(O)cc1)c1nnc2ccc(Nc3cccc(Cl)c3)nn12 [Compound 319]	< 100	
C[C@@H](c1ccc(O)cc1)c1nnc2ccc(Nc3cccc(Cl)c3)nn12 [Compound 320]	< 100	
CC(c1ccc(O)cc1)c1nnc2ccc(Nc3cccc(Cl)c3)nn12 (centres unmarked) [Compound 321]	< 100	
Oc1ccc(Cc2nnc3ccc(NC4CCNCC4)nn23)cc1 [Compound 322]	> 2000	
CC(=O)N1CCC(Nc2ccc3nnc(Cc4ccc(O)cc4)n3n2)CC1 [Compound 323]	100 to 2000	
CC(C)C(=O)N1CCC(Nc2ccc3nnc(Cc4ccc(O)cc4)n3n2)CC1 [Compound 324]	100 to 2000	
O=C(Cc1ccccc1)N1CCC(Nc2ccc3nnc(Cc4ccc(O)cc4)n3n2)CC1 [Compound 325]	100 to 2000	
CC(=O)N1CCCC(Nc2ccc3nnc(Cc4ccc(O)cc4)n3n2)C1 (centres unmarked) [Compound 326]	> 2000	
CC(C)C(=O)N1CCCC(Nc2ccc3nnc(Cc4ccc(O)cc4)n3n2)C1 (centres unmarked) [Compound 327]	> 2000	
O=C(Cc1ccccc1)N1CCCC(Nc2ccc3nnc(Cc4ccc(O)cc4)n3n2)C1 (centres unmarked) [Compound 328]	> 2000	
Oc1ccc(Cc2nnc3ccc(NC4CC4)nn23)cc1 [Compound 329]	100 to 2000	
Oc1ccc(Cc2nnc3ccc(NC4CCC4)nn23)cc1 [Compound 330]	100 to 2000	
COc1cc(NCc2nnc3ccc(Nc4cccc(Cl)c4)nn23)c(C(C)=O)cc1OC [Compound 331]	> 2000	
COC(=O)c1c(O)cccc1NCc1nnc2ccc(Nc3cccc(Cl)c3)nn12 [Compound 332]	100 to 2000	
Clc1cccc(Nc2ccc3nnc(CNc4cccc(OCc5ccccc5)c4)n3n2)c1 [Compound 333]	> 2000	
Clc1cccc(Nc2ccc3nnc(CNc4cccc(Oc5ccccc5)c4)n3n2)c1 [Compound 334]	> 2000	
COc1ccc(NCc2nnc3ccc(Nc4cccc(Cl)c4)nn23)cc1O [Compound 335]	> 2000	
COc1cccc(NCc2nnc3ccc(Nc4cccc(Cl)c4)nn23)c1 [Compound 336]	100 to 2000	

SMILES	Ki [nM]	Ki (number printed instead of class symbol) [nM]
COc1ccc(NCc2nnc3ccc(Nc4cccc(Cl)c4)nn23)cc1OC [Compound 337]	> 2000	
Oc1cccc(NCc2nnc3ccc(Nc4cccc(Cl)c4)nn23)c1 [Compound 338]	100 to 2000	
CCOc1cccc(NCc2nnc3ccc(Nc4cccc(Cl)c4)nn23)c1 [Compound 339]	> 2000	
O=C(O)c1cc(O)ccc1NCc1nnc2ccc(Nc3cccc(Cl)c3)nn12 [Compound 340]	> 2000	
Fc1ccc(NCc2nnc3ccc(Nc4cccc(Cl)c4)nn23)cc1F [Compound 341]	> 2000	
Fc1ccc(NCc2nnc3ccc(Nc4cccc(Cl)c4)nn23)c(Cl)c1 [Compound 342]	> 2000	
Fc1ccc(NCc2nnc3ccc(Nc4cccc(Cl)c4)nn23)cc1 [Compound 343]	> 2000	
Fc1ccc(NCc2nnc3ccc(Nc4cccc(Cl)c4)nn23)c(F)c1 [Compound 344]	> 2000	
COc1cc(OC)c(NCc2nnc3ccc(Nc4cccc(Cl)c4)nn23)cc1Cl [Compound 345]	> 2000	
COc1cc(NCc2nnc3ccc(Nc4cccc(Cl)c4)nn23)cc(OC)c1OC [Compound 346]	> 2000	
Clc1cccc(Nc2ccc3nnc(CNc4ccc5c(c4)OCO5)n3n2)c1 [Compound 347]	100 to 2000	
Clc1cccc(Nc2ccc3nnc(CNc4ccc5c(c4)OCCO5)n3n2)c1 [Compound 349]	> 2000	
COc1ccc(NCc2nnc3ccc(Nc4cccc(Cl)c4)nn23)cc1 [Compound 350]	> 2000	
COc1ccc(NCc2nnc3ccc(Nc4cccc(Cl)c4)nn23)c(O)c1 [Compound 351]	100 to 2000	
Oc1ccc(NCc2nnc3ccc(Nc4cccc(Cl)c4)nn23)c2cccnc12 [Compound 352]	> 2000	
COc1ccc(OC)c(NCc2nnc3ccc(Nc4cccc(Cl)c4)nn23)c1 [Compound 353]	> 2000	
Clc1cccc(Nc2ccc3nnc(Cc4ccc(Cl)nc4)n3n2)c1 [Compound 354]	100 to 2000	
Clc1cccc(Nc2ccc3nnc(Cc4ccc5c(c4)CCO5)n3n2)c1 [Compound 355]	< 100	
COc1ccc(C2(c3nnc4ccc(Nc5cccc(Cl)c5)nn34)CC2)cc1 [Compound 356]		100
CCC(c1ccc(OC)cc1)c1nnc2ccc(Nc3cccc(Cl)c3)nn12 (centres unmarked) [Compound 357]	< 100	
Cc1ccc(Cl)cc1Nc1ccc2nnc(Cc3ccc(O)cc3)n2n1 [Compound 358]	< 100	
Oc1ccc(Cc2nnc3ccc(Nc4cc(Cl)ccc4F)nn23)cc1 [Compound 359]	< 100	
COc1ccc(Cl)cc1Nc1ccc2nnc(Cc3ccc(O)cc3)n2n1 [Compound 360]	< 100	

SMILES	Ki [nM]	Ki (number printed instead of class symbol) [nM]
Oc1ccc(Cc2nnc3ccc(Nc4cc(Cl)ccc4Cl)nn23)cc1 [Compound 361]	< 100	
Fc1ccc(Cl)cc1Nc1ccc2nnc(Cc3ccc4c(c3)OCO4)n2n1 [Compound 362]	< 100	
Clc1ccc(Cl)c(Nc2ccc3nnc(Cc4ccc5c(c4)OCO5)n3n2)c1 [Compound 363]	100 to 2000	
CS(=O)(=O)c1ccc(Cc2nnc3ccc(Nc4cccc(Cl)c4)nn23)cc1 [Compound 364]	> 2000	
Oc1cccc(Cc2nnc3ccc(Nc4cccc(Cl)c4)nn23)c1 [Compound 365]	100 to 2000	
Oc1ccc(CCc2nnc3ccc(Nc4cccc(Cl)c4)nn23)cc1 [Compound 366]	100 to 2000	
CCC(c1ccc(O)cc1)c1nnc2ccc(Nc3cccc(Cl)c3)nn12 (centres unmarked) [Compound 367]	< 100	
Clc1cccc(Nc2ccc3nnc(CCc4cccnc4)n3n2)c1 [Compound 368]	> 2000	
CS(=O)(=O)Nc1ccc(Cc2nnc3ccc(Nc4cccc(Cl)c4)nn23)cc1 [Compound 369]	> 2000	
CC1CC(Nc2ccc3nnc(Cc4ccc(O)cc4)n3n2)CC(C)(C)C1 (centres unmarked) [Compound 370]	< 100	
Clc1cccc(Nc2ccc3nnc(COc4cccnc4)n3n2)c1 [Compound 371]	100 to 2000	
Cc1ccc(OCc2nnc3ccc(Nc4cccc(Cl)c4)nn23)cn1 [Compound 372]	> 2000	
Clc1cccc(Nc2ccc3nnc(COc4ccccn4)n3n2)c1 [Compound 373]	> 2000	
Clc1cccc(Nc2ccc3nnc(COc4cccnc4Cl)n3n2)c1 [Compound 374]	100 to 2000	
Clc1cccc(Nc2ccc3nnc(COc4ccc(Cl)nc4)n3n2)c1 [Compound 375]	> 2000	
Clc1cccc(Nc2ccc3nnc(COc4cccc(Cl)n4)n3n2)c1 [Compound 376]	> 2000	
Fc1cccc(OCc2nnc3ccc(Nc4cccc(Cl)c4)nn23)c1 [Compound 377]	> 2000	
Fc1ccc(OCc2nnc3ccc(Nc4cccc(Cl)c4)nn23)cc1F [Compound 378]	> 2000	
N#Cc1ccc(OCc2nnc3ccc(Nc4cccc(Cl)c4)nn23)cc1 [Compound 379]	> 2000	
Clc1ccc(OCc2nnc3ccc(Nc4cccc(Cl)c4)nn23)cc1 [Compound 380]	> 2000	
